{
  "source": "patent US8946394B2",
  "about": "“Conjugate for photodynamic diagnosis or therapy and method for preparing same” (Panaxem Co., Ltd., priority 2010, dated 2015)",
  "tested_on": "HeLa cells",
  "test": "Cytotoxicity test (MTT) with and without near infrared irradiation",
  "format": "cell-based",
  "procedure": "Cytotoxicity test was conducted on the nano-microsphere according to the present invention prepared from Example 1. HeLa cells as cancer cells were incubated in the RPMI 1640 culture medium containing 10% FBS and 1% penicillin in the presence of 5% CO2 at a temperature of 37° C. Then, for the cytotoxicity test, the incubated HeLa cells were dispensed on a 96-well plate at a cell number of 1×10^4 and then incubated for 24 hours. Next day, the nano-microspheres (nano-microspheres added with 1.25 mg of a photosensitizer) according to the present invention were diluted by concentrations, respectively, and then the diluted concentrations were put into each well at 100 μl.\nAfter that, the cells were further incubated for 12 hours so that the nano-microspheres can act on the cells, and then near infrared wavelength light (670 nm) was irradiated at an amount of 1.2 J/cm^2. […]\nLastly, 20 μl of MTT reagent (3-(4,5-dimethylthiazol-2yl)-2,5-diphenyl-2H-tetrazolium bromide) was added to the cells after incubation was completed, followed by again incubating for 3˜4 hours. […] After that, the ELIZA analyzer was used to measure absorbance at 595 nm and thus comparison of the amount of formazan formed was conducted, to thereby confirm cell viability (%) and cytotoxicity of the conjugate (FIGS. 15 and 16).",
  "data": [
    {"smiles": "CCCC(C)(C)c1cc(Oc2ccc3c(c2)/C2=N/c4c5ccc(Oc6cc(C(C)(C)CCC)c(OC)cc6C(C)(C)CCC)cc5c5[n]4[Zn][n]4/c(c6ccc(Oc7cc(C(C)(C)CCC)c(OC)cc7C(C)(C)CCC)cc6/c4=N/C3=N2)=N\\C2=NC(=N\\5)/c3ccc(Oc4ccc(C(=O)O)cc4)cc32)c(C(C)(C)CCC)cc1OC", "note": "[Zn-Pc-COOH]", "values": [
      {"measurement": "apoptosis / cell viability (%)", "setting": "near infrared ray (670 nm, 1.2 J/cm^2) irradiated", "result": "apoptosis occurred in proportional to the time for irradiation"},
      {"measurement": "apoptosis / cell viability (%)", "setting": "near infrared ray not irradiated", "result": "apoptosis did not occur"}
    ]}
  ]
}
